In patent publication US20040019092A1, “Non-peptide somatostatin receptor ligands” (priority 2001, published 2004):
Several values for one entry are separate records, joined by “and”; a condition that tells them apart may be missing. Equal values may be shown once.

Experiments:
[1] = tested on: GH secretion; test: GH secretion in vivo, rat, subcutaneous application, 1 h (basal); conditions: rat, basal GH secretion, 1 h after subcutaneous application
Procedure: (§1) Animals, anesthesia: Male rats of a Sprague Dawley strain (Ico:OFA-SD, Iffa-Credo, F-Lyon) of 200-300 g body weight were used. They were kept under standardized conditions and were anesthetized with pentobarbital-sodium (Siegfried, CH Zofingen), 60 mg/kg i.p. for subcutaneous and intraduodenal applications. Animals designed for an infusion experiment were anesthetized with urethane (Siegfried, CH Zofingen), 1.2 g/kg i.p.
(§2) Compounds: The compounds were dissolved, optionally with the aid of one or more of the following adjuncts:
(§3) Stock solutions of the compounds were prepared in water with the addition of the necessary adjunct(s). Further dilutions were prepared allowing 5 mL/kg for subcutaneous application, 2 mL for intraduodenal (i.d.) application or 4.5 mL/kg for intravenous infusion. The solutions for the intravenous application/infusion were made isotonic by addition of glucose to a final concentration of 5%.
(§4) Applications were made, or, in the case of infusion, started, approximately 10 minutes after induction of anesthesia. No further treatment followed subcutaneous or intraduodenal application. Ten, twenty-five and fifty-five minutes after start of the intravenous infusion the GH secretion was stimulated with repeated intravenous injections of the potent GHRH analog, D-Ala2 GHRH1-29NH2, 1 μg/kg.
(§5) One hour after subcutaneous or intraduodenal application of the compounds, blood was collected from the trunk after decapitation. In the case of application by infusion, 5 minutes after each application of GHRH, a blood sample of 0.8 mL was taken from a V. jugularis and mixed with EDTA (Eppendorf tubes TOM14, Milian, CH Geneva). The blood samples were kept on ice and spun in a cooled centrifuge. The serum or plasma was separated and frozen.
(§6) Statistics: In each experiment, 4-5 animals were used per dose, with 6 to 8 animals as the control group that received the vehicle. The GH serum/plasma levels were averaged, the mean of the treated groups expressed in percent of the control group and the ID50-value for the inhibition of the secretion was determined graphically (log-probit) for each experiment. In most experiments with enteral (intraduodenal) application only 1 dose, 10 mg/kg, was given. […] Only inhibitions between 20 and 80% were considered reliable.
(§7) Two to four experiments were performed. In the case of proper dose response curves, allowing the determination of an ID50 values were averaged logarithmically. In the cases of single dose-experiments, the GH value in percent of control were averaged logarithmically and the ID50 for this value was taken from the table. ID50 values determined at the different time points during the infusion were averaged and this value was included in the tables.

[2] = tested on: GH secretion; test: GH secretion in vivo, rat, intraduodenal (enteral) application, 1 h (basal); conditions: for GH vivo i.d. 1 h ID50: basal GH secretion, 1 h after intraduodenal application, mostly approximate ID50 from single 10 mg/kg dose, Ø = no effect at this dose, > = extrapolated value; for enteral ID50 (GH secretion): enteral (intraduodenal) application
Procedure: as §1, §2, §3, §4, §5, §6, §7

[3] = tested on: GHRH stimulated GH secretion; test: GH secretion in vivo, rat, intravenous infusion with repeated GHRH stimulation; conditions: for INFUS. + GHRH ID50 MEAN: Table 4, mean of infusion time points; for INFUS. + GHRH ID50 15′ / INFUS. + GHRH ID50 30′ / INFUS. + GHRH ID50 60′: Table 4, urethan; for GH vivo Inf + GHRH ID50 (mean of time points): urethane, i.v. infusion, GHRH stimulated
Procedure: as §1, §3, §4, §5, §6, §7

[4] = tested on: GHRH stimulated GH secretion; test: GH secretion, rat in urethan anesthesia, subcutaneous + repeated GHRH stimulation; format: in vivo
Procedure: as §4
(§8) With most of these selected compounds additional in vivo experiments in other models (intraduodenal application followed by repeated stimulation of the GH secretion by GHRH, oral application by gavage of unanesthetized, estradiol primed rats) were performed. Table 4 summarizes data obtained for the inhibition of the stimulated GH secretion after subcutaneous, intraduodenal and intravenous application and the inhibitory effects obtained for different time points during intravenous infusion of selected hydantoins.

[5] = tested on: GHRH stimulated GH secretion; test: GH secretion, rat in urethan anesthesia, intraduodenal + repeated GHRH stimulation; format: in vivo; conditions: for INTRADUODENAL + GHRH ID50 15′ / INTRADUODENAL + GHRH ID50 30′ / INTRADUODENAL + GHRH ID50 60′ / INTRADUODENAL + GHRH ID50 120′: urethan; for INTRADUODENAL + GHRH ID50 15′ / INTRADUODENAL + GHRH ID50 120′: ø = no effect at this dose
Source text: as §8, with “No further treatment followed subcutaneous or intraduodenal application. […] This value has been determined in a total of four independent experiments. […] However, in further studies compound 47 has also been tested by the enteral route of administration after repeated stimulation of the GH secretion by GHRH. […] With” for “With”, “hydantoins. […] [table]” for “hydantoins.”

[6] = tested on: GHRH stimulated GH secretion; test: GH secretion, rat in urethan anesthesia, i.v. single injection + repeated GHRH stimulation; format: in vivo
[7] = tested on: GH secretion; test: Unanesthetized estradiol primed male rats, oral by gavage: GH; format: in vivo, rat; conditions: for GH 1 H ID50 / MEAN ID50 (GH and prolactin): estradiol implant male rats, oral by gavage, 1 hour
Procedure: The inhibitory effect of the compounds on GH release may also be examined after oral application to male rats with oestradiol implants. This test is carried out as follows.
A loop (length 50 mmØ3 mm) of silastic with 50 mg of oestradiol is implanted under the dorsal skin of anaesthetized male OFA rats that have a weight of ca. 300 g. At various times (1 to 6 months later), these animals, in a fasted state, are used repeatedly for tests. The test substances are active in this test at doses from 0.1 to 5 mg/kg, when GH level in the blood serum is determined by radio-immunoassay 1 and 2 hours after oral administration.
(§9) Table 5 summarizes the results obtained in the estradiol primed male rats that received the compounds orally by gavage. These rats have stabilized elevated GH plasma levels as well as increased prolactin levels. In contrast to normal untreated rats, who's prolactin secretion is not sensitive to the inhibitory effect of somatostain, in these rats the prolactin secretion is inhibited to a similar degree as the GH secretion. Therefore, the inhibitory effect can be measured on 2 different parameters, GH and prolactin. The mean enteral absorption and activity of the respective compounds are shown.

[8] = tested on: prolactin secretion; test: Unanesthetized estradiol primed male rats, oral by gavage: prolactin; format: in vivo, rat; conditions: for PROLACT 1 H ID50: estradiol implant male rats, oral by gavage, ø = no effect at this dose
Source text: as §9

[9] = target: T1, human sst2 receptor sub-type (Homo sapiens, UniProt P30874); test: In vitro binding, human sst2 receptor sub-type (SSTR2); conditions: Tables 8/9: Bind SSTR2 nM
T1 construct: host or cells: SRIF receptor expressing cell cultures (general statement only)
T1 sequence (P30874 whole entry): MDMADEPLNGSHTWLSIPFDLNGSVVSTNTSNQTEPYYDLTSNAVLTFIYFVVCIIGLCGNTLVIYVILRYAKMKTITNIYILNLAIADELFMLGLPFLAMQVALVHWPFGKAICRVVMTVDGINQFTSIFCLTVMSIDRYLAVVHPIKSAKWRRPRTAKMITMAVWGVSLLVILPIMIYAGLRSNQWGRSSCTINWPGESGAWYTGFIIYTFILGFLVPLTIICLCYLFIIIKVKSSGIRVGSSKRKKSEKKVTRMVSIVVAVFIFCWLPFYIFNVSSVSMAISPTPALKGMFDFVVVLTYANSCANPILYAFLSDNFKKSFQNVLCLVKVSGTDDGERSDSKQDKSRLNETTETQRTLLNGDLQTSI
Procedure: The in vitro binding affinities for rat cortex SRIF receptors and the human sst2 receptor sub-type was assessed. Further the in vitro inhibition of the GHRH induced GH secretion in primary cultures of rat pituitary cells as well as the in vivo inhibition of GH secretion in the rat after systemic or enteral application was studied. […] Therefore, the in vivo activities of the compounds in rats with respect to inhibition of growth hormone release was also assessed. Most compounds selected were tested by enteral—intraduodenal (i.d.) application. For determination of the absolute activity and for the calculation of an enteral bioavailability, single subcutaneous (s.c.) application of intravenous (i.v.) infusion was used.

[10] = tested on: GHRH induced GH secretion in primary cultures of rat pituitary cells; test: In vitro inhibition of GHRH induced GH secretion (GH vitro +GHRH); format: cell-based
[11] = target: SS1 (Rattus norvegicus, UniProt P30680); test: SS-1 binding (Bind SS1 D.H.)
Chain of SS1 (P30680 whole entry): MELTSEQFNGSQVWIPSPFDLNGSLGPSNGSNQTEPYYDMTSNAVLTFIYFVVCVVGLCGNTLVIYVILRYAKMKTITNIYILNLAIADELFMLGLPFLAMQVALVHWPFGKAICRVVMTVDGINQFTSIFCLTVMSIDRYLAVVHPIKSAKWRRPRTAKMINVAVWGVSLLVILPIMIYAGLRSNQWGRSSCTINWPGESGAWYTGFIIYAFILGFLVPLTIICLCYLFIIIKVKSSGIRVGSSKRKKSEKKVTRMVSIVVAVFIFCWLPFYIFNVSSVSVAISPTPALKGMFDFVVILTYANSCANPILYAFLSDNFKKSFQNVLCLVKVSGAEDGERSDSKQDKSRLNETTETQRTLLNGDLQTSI

Row | Structure (SMILES) | GH vivo s.c. 1 h ID50 [1] | GH vivo i.d. 1 h ID50 [2] | enteral ID50 (GH secretion) [2] | INFUS. + GHRH ID50 MEAN [3] | INFUS. + GHRH ID50 15′ ([3]; 15′ of infusion) | INFUS. + GHRH ID50 30′ ([3]; 30′ of infusion) | INFUS. + GHRH ID50 60′ ([3]; 60′ of infusion) | GH vivo Inf + GHRH ID50 (mean of time points) [3] | SUBCUTANEOUS + GHRH ID50 15′ [4] | SUBCUTANEOUS + GHRH ID50 30′ [4] | SUBCUTANEOUS + GHRH ID50 60′ [4] | INTRADUODENAL + GHRH ID50 15′ [5] | INTRADUODENAL + GHRH ID50 30′ [5] | INTRADUODENAL + GHRH ID50 60′ [5] | INTRADUODENAL + GHRH ID50 120′ [5] | GH 1 H ID50 [7] | MEAN ID50 (GH and prolactin) [7] | PROLACT 1 H ID50 [8] | other results
1 | Cc1cccc2c(CC3C(=O)N(CCCCCN)C(=O)N3S(=O)(=O)c3ccc(Oc4ccc(O)c(Cl)c4)c(C(=O)N(C)C)c3)c[nH]c12 (racemic) [(+/−)-43] | 3.79 µg/kg | 3417 µg/kg | 3.4 mg/kg | 3.72 µg/kg | 6.44 µg/kg | 3.58 µg/kg | 2.24 µg/kg | 3.72 µg/kg/h | 7.05 µg/kg | 7.95 µg/kg | 11.35 µg/kg | 1165 µg/kg | 1646 µg/kg | 1419 µg/kg | 2872 µg/kg | 3000 µg/kg | 2324 µg/kg | 1800 µg/kg | inhibition at 10 mg/kg ([2]; intraduodenal, enteral administration of 10 mg/kg): 68%; SUBCUTANEOUS + GHRH ID50 120′ ([4]; 120′): 15.69 µg/kg; I.V. SINGLE INJECTION + GHRH ID50 15′ ([6]; 15′): 12.50 µg/kg; I.V. SINGLE INJECTION + GHRH ID50 30′ ([6]; 30′): 31.20 µg/kg; I.V. SINGLE INJECTION + GHRH ID50 60′ ([6]; 60′): 55.00 µg/kg; I.V. SINGLE INJECTION + GHRH ID50 120′ ([6]; 120′): 124.10 µg/kg; oral ID50 (GH) ([7]; estradiol primed male rats): 3 mg/kg; oral ID50 (prolactin) ([8]; estradiol primed male rats): 1.8 mg/kg
2 | Cc1cccc2c(CC3C(=O)N(CCCCC(C)(C)N)C(=O)N3S(=O)(=O)c3ccc(Oc4ccc(O)c(Cl)c4)c(C(=O)N(C)C)c3)c[nH]c12 (stereo not drawn) [Compound 47] | 10.00 µg/kg | ˜454 μg/kg | 0.5 mg/kg |  |  |  |  | 8.10 µg/kg/h |  |  |  |  |  |  |  |  |  |  | IC50 [9]: 0.38 nM; enteral bioavailability (from ID50 ratio) ([2]; intraduodenal 1 hour vs parenteral ID50): 1.8%; bioavailability calculated in the GHRH stimulated enteral model [5]: 0.3%; enteral ID50 after repeated stimulation of the GH secretion by GHRH ([5]; 1 hour): ~2.6 mg/kg
3 | C[C@@H](O)[C@@H]1NC(=O)[C@H](CCCCN)NC(=O)[C@@H](Cc2c[nH]c3ccccc23)NC(=O)[C@H](Cc2ccccc2)NC(=O)[C@@H](NC(=O)[C@H](N)Cc2ccccc2)CSSC[C@@H](C(=O)N[C@H](CO)[C@@H](C)O)NC1=O [Octreotride, Octreotide, reference compound] | 0.13 µg/kg | 125 µg/kg |  | 0.12 µg/kg | 0.16 µg/kg | 0.11 µg/kg | 0.10 µg/kg |  | 0.15 µg/kg | 0.15 µg/kg | 0.26 µg/kg | 24.2 µg/kg | 16.6 µg/kg | 26.8 µg/kg | 82.0 µg/kg | 440 µg/kg | 663 µg/kg | 998 µg/kg | IC50 [10]: 1.3 nM; GH, Ur Inf15′ +GHRH ([3]; Tables 8/9, urethane, 15′ of infusion): 0.124 µg/kg/h; GH, UR Inf30′ +GHRH ([3]; Tables 8/9, urethane, 30′ of infusion): 0.082 µg/kg/h; GH, UR Inf60′ +GHRH ([3]; Tables 8/9, urethane, 60′ of infusion): 0.085 µg/kg/h; GH vivo Inf + GHRH ID50 (mean of time points) ([3]; listed as Octreotride ac): 0.12 µg/kg/h and 0.096 µg/kg/h; GH vivo Inf + GHRH ID50 (mean of time points) ([3]; listed as octreotride ac): 0.096 µg/kg/h; Bind SS1 D.H. [11]: 0.30 nM
